What was measured:
[1] = tested on: algae, bacteria, fungi, viruses and bryophyte plant material such as mosses, liverworts, hornworts, lichens; test: 1% spray solution on simple celled plant material; assay type: in vivo
Text: The pH of the resulting solution is typically alkaline, which activates the H2O2 for bleaching. The dry powder contains about 30% by weight w/w H2O2 and finds specialty use as a wood brightener and general cleaning aid.

[2] = tested on: most types of plant material; test: Spray solution over the tops of growing plant material; assay type: in vivo; details: diluted in water, sprayed over the tops of growing plant material, no foam
[3] = EPA determination, cited from earlier work
[4] = EPA determination; cited from earlier work
[5] = EPA determination; cited from earlier work; remark: listed apart in the source
[6] = EPA determination; cited from earlier work; remark: listed apart in the source

O=C([O-])[O-].O=C([O-])[O-].OO.OO.OO.[Na+].[Na+].[Na+].[Na+] [sodium carbonate peroxyhydrate]
effect on simple celled plant material [1]: kill on contact | phytotoxicity effects of spray solution [2]: minimal with some plant cell necrosis | toxicity, dermal exposure ([3]; dermal exposure): minimal to mild toxicity | toxicity, oral exposure ([3]; oral exposure): minimal to mild toxicity | dermal irritation [4]: Dermal irritation also occurred | eye damage [5]: severe irreversible eye damage | dermal sensitizer [6]: not considered a dermal sensitizer

— US20060258535A1, “METHOD OF USING SODIUM CARBONATE PEROXYHYDRATE AS AN HERBICIDE” (BIOSAFE SYSTEMS L.L.C.,, priority 2005, published 2006)
